Measured values as given in PubChem BioAssay AID330 (DTP/NCI, 2004).
Where “and” joins values, the source holds several entries; their conditions need not be identical. Identical values can stand only once. Inconclusive results and toxic doses are left out.

System: P388 leukemia ip, CD2F1 mice, survival T/C
Test: NCI In Vivo Anticancer Drug Screen. Data for tumor model P388 Leukemia (intraperitoneal) in CD2F1 (CDF1) mice
Conditions: endpoint: median survival time, higher = longer survival
How it was run: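 Mice carrying the transplanted tumor received test compound or vehicle. Survival was recorded in each group, and the value is the treated-group measurement divided by that of the vehicle-treated control group.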

`CC(C)NC(=O)OCc1c(COC(=O)NC(C)C)c(-c2ccc(Cl)c(Cl)c2)n2c1CCC2` was tested, and the T/C (dose: 0.58 mg/kg/injection, schedule: Q01DX009 (ip), vehicle: saline with Tween-80) was 112 % of control, the T/C (dose: 1.17 mg/kg/injection, schedule: Q01DX009 (ip), vehicle: saline with Tween-80) was 120 % of control and the T/C (dose: 1.5 mg/kg/injection, schedule: Q01DX001 (ip), vehicle: other) was 109 % of control. For the same compound, the T/C (dose: 1.5 mg/kg/injection, schedule: Q01DX001 (iv), vehicle: other) was 102 % of control, the T/C (dose: 1.5 mg/kg/injection, schedule: Q01DX005 (ip), vehicle: other) was 122 % of control and the T/C (dose: 1.5 mg/kg/injection, schedule: Q01DX005 (iv), vehicle: other) was 107 % of control. The T/C (dose: 1.5 mg/kg/injection, schedule: Q01DX005 (oral), vehicle: other) was 98 % of control, the T/C (dose: 1.5 mg/kg/injection, schedule: Q01DX009 (oral), vehicle: other) was 100 % of control and the T/C (dose: 1.56 mg/kg/injection, schedule: Q01DX009 (ip), vehicle: distilled water + Tween-80) was 122 % of control. For the same compound, the T/C (dose: 2.34 mg/kg/injection, schedule: Q01DX009 (ip), vehicle: other) was 151 % of control, the T/C (dose: 2.34 mg/kg/injection, schedule: Q01DX009 (ip), vehicle: saline with Tween-80) was 151 % of control and the T/C (dose: 3.0 mg/kg/injection, schedule: Q01DX001 (ip), vehicle: other) was 116 % of control. The T/C (dose: 3.0 mg/kg/injection, schedule: Q01DX001 (iv), vehicle: other) was 100 % of control, the T/C (dose: 3.0 mg/kg/injection, schedule: Q01DX001 (oral), vehicle: other) was 98 % of control and the T/C (dose: 3.0 mg/kg/injection, schedule: Q01DX005 (iv), vehicle: other) was 108 % of control. For the same compound, the T/C (dose: 3.0 mg/kg/injection, schedule: Q01DX005 (oral), vehicle: other) was 100 % of control, the T/C (dose: 3.0 mg/kg/injection, schedule: Q01DX009 (oral), vehicle: other) was 100 % of control and the T/C (dose: 3.13 mg/kg/injection, schedule: Q01DX009 (ip), vehicle: distilled water + Tween-80) was 117 % of control. The T/C (dose: 4.69 mg/kg/injection, schedule: Q01DX009 (ip), vehicle: other) was 154 % of control, the T/C (dose: 4.69 mg/kg/injection, schedule: Q01DX009 (ip), vehicle: saline with Tween-80) was 150 % of control and 153 % of control and the T/C (dose: 6.0 mg/kg/injection, schedule: Q01DX001 (iv), vehicle: other) was 104 % of control. The T/C (dose: 6.0 mg/kg/injection, schedule: Q01DX001 (oral), vehicle: other) was 99 % of control, the T/C (dose: 6.0 mg/kg/injection, schedule: Q01DX005 (iv), vehicle: other) was 114 % of control and the T/C (dose: 6.0 mg/kg/injection, schedule: Q01DX005 (oral), vehicle: other) was 98 % of control. The T/C (dose: 6.0 mg/kg/injection, schedule: Q01DX009 (ip), vehicle: other) was 152 % of control, the T/C (dose: 6.0 mg/kg/injection, schedule: Q01DX009 (oral), vehicle: other) was 100 % of control and the T/C (dose: 6.25 mg/kg/injection, schedule: Q01DX005 (ip), vehicle: Klucel (hydroxypropylcellulose) (HPC)) was 164 % of control and 168 % of control. For the same compound, the T/C (dose: 6.25 mg/kg/injection, schedule: Q01DX005 (ip), vehicle: other) was 164 % of control, the T/C (dose: 6.25 mg/kg/injection, schedule: Q01DX005 (ip), vehicle: saline with Tween-80) was 151 % of control and the T/C (dose: 6.25 mg/kg/injection, schedule: Q01DX009 (ip), vehicle: other) was 155 % of control and 160 % of control. For the same compound, the T/C (dose: 6.25 mg/kg/injection, schedule: Q01DX009 (ip), vehicle: saline with Tween-80) was 158 % of control, the T/C (dose: 6.25 mg/kg/injection, schedule: Q01DX009 (oral), vehicle: distilled water + Tween-80) was 97 % of control and the T/C (dose: 7.5 mg/kg/injection, schedule: Q01DX005 (ip), vehicle: saline with Tween-80) was 118 % of control. For the same compound, the T/C (dose: 9.38 mg/kg/injection, schedule: Q01DX009 (ip), vehicle: other) was 154 % of control and 198 % of control, the T/C (dose: 9.38 mg/kg/injection, schedule: Q01DX009 (ip), vehicle: saline with Tween-80) was 157 % of control and the T/C (dose: 12.0 mg/kg/injection, schedule: Q01DX001 (iv), vehicle: other) was 113 % of control. The T/C (dose: 12.0 mg/kg/injection, schedule: Q01DX001 (oral), vehicle: other) was 100 % of control, the T/C (dose: 12.0 mg/kg/injection, schedule: Q01DX005 (ip), vehicle: other) was 153 % of control and the T/C (dose: 12.0 mg/kg/injection, schedule: Q01DX005 (oral), vehicle: other) was 100 % of control. For the same compound, the T/C (dose: 12.0 mg/kg/injection, schedule: Q01DX009 (ip), vehicle: other) was 169 % of control, the T/C (dose: 12.0 mg/kg/injection, schedule: Q01DX009 (oral), vehicle: other) was 102 % of control and the T/C (dose: 12.5 mg/kg/injection, schedule: Q01DX005 (ip), vehicle: Klucel (hydroxypropylcellulose) (HPC)) was 151 % of control and 160 % of control and 163 % of control. The T/C (dose: 12.5 mg/kg/injection, schedule: Q01DX005 (ip), vehicle: other) was 177 % of control, the T/C (dose: 12.5 mg/kg/injection, schedule: Q01DX009 (ip), vehicle: other) was 165 % of control and 167 % of control and the T/C (dose: 12.5 mg/kg/injection, schedule: Q01DX009 (ip), vehicle: saline with Tween-80) was 151 % of control. For the same compound, the T/C (dose: 12.5 mg/kg/injection, schedule: Q01DX009 (oral), vehicle: distilled water + Tween-80) was 103 % of control, the T/C (dose: 18.75 mg/kg/injection, schedule: Q01DX009 (ip), vehicle: saline with Tween-80) was 166 % of control and 167 % of control and the T/C (dose: 24.0 mg/kg/injection, schedule: Q01DX001 (oral), vehicle: other) was 100 % of control. For the same compound, the T/C (dose: 24.0 mg/kg/injection, schedule: Q01DX005 (ip), vehicle: other) was 178 % of control, the T/C (dose: 24.0 mg/kg/injection, schedule: Q01DX005 (oral), vehicle: other) was 102 % of control and the T/C (dose: 24.0 mg/kg/injection, schedule: Q01DX009 (ip), vehicle: other) was 184 % of control. The T/C (dose: 24.0 mg/kg/injection, schedule: Q01DX009 (oral), vehicle: other) was 102 % of control, the T/C (dose: 25.0 mg/kg/injection, schedule: Q01DX005 (ip), vehicle: Klucel (hydroxypropylcellulose) (HPC)) was 154 % of control and 168 % of control and 179 % of control and the T/C (dose: 25.0 mg/kg/injection, schedule: Q01DX005 (ip), vehicle: other) was 199 % of control. The T/C (dose: 25.0 mg/kg/injection, schedule: Q01DX005 (ip), vehicle: saline with Tween-80) was 162 % of control, the T/C (dose: 25.0 mg/kg/injection, schedule: Q01DX009 (ip), vehicle: Klucel (hydroxypropylcellulose) (HPC)) was 168 % of control and the T/C (dose: 25.0 mg/kg/injection, schedule: Q01DX009 (ip), vehicle: other) was 100 % of control. The T/C (dose: 25.0 mg/kg/injection, schedule: Q01DX009 (ip), vehicle: saline with Tween-80) was 166 % of control, the T/C (dose: 25.0 mg/kg/injection, schedule: Q01DX009 (oral), vehicle: distilled water + Tween-80) was 92 % of control and the T/C (dose: 40.0 mg/kg/injection, schedule: Q01DX009 (ip), vehicle: Klucel (hydroxypropylcellulose) (HPC)) was 155 % of control. For the same compound, the T/C (dose: 48.0 mg/kg/injection, schedule: Q01DX001 (ip), vehicle: other) was 168 % of control, the T/C (dose: 48.0 mg/kg/injection, schedule: Q01DX001 (oral), vehicle: other) was 100 % of control and the T/C (dose: 48.0 mg/kg/injection, schedule: Q01DX005 (ip), vehicle: other) was 174 % of control. The T/C (dose: 48.0 mg/kg/injection, schedule: Q01DX005 (oral), vehicle: other) was 107 % of control, the T/C (dose: 48.0 mg/kg/injection, schedule: Q01DX009 (ip), vehicle: other) was 106 % of control and the T/C (dose: 48.0 mg/kg/injection, schedule: Q01DX009 (oral), vehicle: other) was 119 % of control. For the same compound, the T/C (dose: 50.0 mg/kg/injection, schedule: Q01DX005 (ip), vehicle: Klucel (hydroxypropylcellulose) (HPC)) was 163 % of control and 205 % of control and 206 % of control, the T/C (dose: 50.0 mg/kg/injection, schedule: Q01DX005 (ip), vehicle: other) was 186 % of control and the T/C (dose: 50.0 mg/kg/injection, schedule: Q01DX009 (ip), vehicle: Klucel (hydroxypropylcellulose) (HPC)) was 239 % of control. For the same compound, the T/C (dose: 50.0 mg/kg/injection, schedule: Q01DX009 (ip), vehicle: saline with Tween-80) was 187 % of control, the T/C (dose: 50.0 mg/kg/injection, schedule: Q01DX009 (oral), vehicle: distilled water + Tween-80) was 110 % of control and the T/C (dose: 60.0 mg/kg/injection, schedule: Q01DX005 (ip), vehicle: saline with Tween-80) was 151 % of control. For the same compound, the T/C (dose: 100.0 mg/kg/injection, schedule: Q01DX005 (ip), vehicle: saline with Tween-80) was 90 % of control, the T/C (dose: 100.0 mg/kg/injection, schedule: Q01DX009 (ip), vehicle: distilled water + Tween-80) was 113 % of control and the T/C (dose: 100.0 mg/kg/injection, schedule: Q01DX009 (ip), vehicle: saline with Tween-80) was 177 % of control. For the same compound, the T/C (dose: 100.0 mg/kg/injection, schedule: Q01DX009 (oral), vehicle: distilled water + Tween-80) was 97 % of control, the T/C (dose: 200.0 mg/kg/injection, schedule: Q01DX005 (ip), vehicle: distilled water + Tween-80) was 104 % of control and the T/C (dose: 200.0 mg/kg/injection, schedule: Q01DX009 (oral), vehicle: distilled water + Tween-80) was 111 % of control.
